Test system: Wheat (variety "Riband")
Test: Phytotoxicity on pot-grown wheat after track-sprayer application
Format: in vivo
Settings: versus 2S,4R (Ia), 2R,4R (Ic) and 2S,4S (Id)
Description: Wheat seeds (variety “Riband”) were sown in 6.5 cm diameter pots with typically 6 seeds per pot. The growing media comprised 66.5% TKS1 peat soil, 30% sugar beet soil and 3.5% sand. The seeds were covered with a fine layer of soil and the pots were watered. Within a day of sowing the pots were treated with 5 mL of a solution of the growth regulator trinexapac-ethyl (Moddus 250 EC™ from Syngenta) diluted 1 part in 1000 parts water. The pots were kept in a controlled environment room at 19° C. constant temperature, 60% relative humidity and a 14 hour day length until test treatment at which time the plants were around 3 weeks old. Plant density was reduced to typically 4 plants per pot prior to application of the test treatments.
The difenoconazole formulations were mixed with water and ultrasonically agitated in order to achieve a homogeneous emulsion. Spray solutions were then made with 9 parts water to 1 part isopropanol by volume. The test treatments were applied using a track-sprayer with a single flat-fan nozzle at a height of 60 cm and calibrated to apply the equivalent of 200 litres per hectare.
The symptoms of phytotoxicity on wheat caused by difenoconazole included chlorosis and/or necrosis.
Test wheat plants were grown and the formulations applied as for Example 3. […]

Q: For `C[C@H]1CO[C@](Cn2cncn2)(c2ccc(Oc3ccc(Cl)cc3)cc2Cl)O1` [Ib], which “Phytotoxic damage to wheat compared with the other stereoisomers” value is on record?
A: less phytotoxic damage

Reference: US9462807B2, “Difenoconazole sterepospmeric composition with reduced phytotoxicity” (Syngenta Participations AG, priority 2013, dated 2016)
